Patent publication US11944605B2, “Rapamycin analogs and uses thereof” (Janssen Pharmaceutica NV, priority 2018, dated 2024)

system: pS6K1 (p-p70 S6 Kinase (Thr389)) in MCF-7 cells; assay: AlphaLISA Ultra pS6K1 Assay; type: cell-based; conditions: Homo sapiens, 1.5 h; MCF7 cells, 90 min
Description: AlphaLISA Ultra pS6K1 Assay
1. Seed MCF-7 cells in Corning 3701 plate and incubate for 20˜24 hour. 12,000˜16,000 cells will be seeded in 36 μL medium per well.
2. Change the culture medium with fresh medium and incubate for another 2 hours.
3. Add 12 μL (4×) compounds into the cell plate by HAMILTON. Final DMSO concentration is 0.5%. Incubate for 90 minutes.
4. Aspirate […] by HAMILTON, 10 μL rest per well.
5. Add 10 μL 2× lysis buffer using HAMILTON; total volume in wells is 20 μL. Allow cells to shake for 30 min. Cover plate by plastic foil and store plate at −80° C. up to analysis.
6. Thaw cell lysate at RT and transfer 10 μL lysate to assay plate (Optiplate-384).
7. Add 5 μL acceptor beads into assay plate and incubation for 2 hours
8. Add 5 μL donor beads and incubation for 2 hours
9. Count the plate by EnSpire Multimode Plate Reader

Row | SMILES | IC50 [nM]
1 | CNC(=O)OCCO[C@@H]1C[C@@H]2CC[C@@H](C)[C@@](O)(O2)C(=O)C(=O)N2CCCC[C@H]2C(=O)O[C@H]([C@H](C)C[C@@H]2CC[C@@H](OCCO)[C@H](OC)C2)CC(=O)[C@H](C)/C=C(\C)[C@@H](O)[C@@H](OC)C(=O)[C@H](C)C[C@H](C)/C=C/C=C/C=C/1C [Compound I-74] | 0.1 to 1
2 | CO[C@@H]1C[C@H](C[C@@H](C)[C@@H]2CC(=O)[C@H](C)/C=C(\C)[C@@H](O)[C@@H](OC)C(=O)[C@H](C)C[C@H](C)/C=C/C=C/C=C(\C)[C@@H](OCCOCCOC(F)(F)C(F)(F)F)C[C@@H]3CC[C@@H](C)[C@@](O)(O3)C(=O)C(=O)N3CCCC[C@H]3C(=O)O2)CC[C@H]1OCCO [Compound I-80] | 0.1 to 1
3 | CO[C@@H]1C[C@H](C[C@@H](C)[C@@H]2CC(=O)[C@H](C)/C=C(\C)[C@@H](O)[C@@H](OC)C(=O)[C@H](C)C[C@H](C)/C=C/C=C/C=C(\C)[C@H](OCCOCC(COCCO)COCCO)C[C@@H]3CC[C@@H](C)[C@@](O)(O3)C(=O)C(=O)N3CCCC[C@H]3C(=O)O2)CC[C@H]1O [Compound I-64] | 1 to 10
4 | CO[C@@H]1C[C@H](C[C@@H](C)[C@@H]2CC(=O)[C@H](C)/C=C(\C)[C@@H](O)[C@@H](OC)C(=O)[C@H](C)C[C@H](C)/C=C/C=C/C=C(\C)[C@@H](OCCOCC(COCCO)COCCO)C[C@@H]3CC[C@@H](C)[C@@](O)(O3)C(=O)C(=O)N3CCCC[C@H]3C(=O)O2)CC[C@H]1O [Compound I-65] | 0.1 to 1
5 | CNC(=O)OCCOC1C[C@@H]2CC[C@@H](C)[C@@](O)(O2)C(=O)C(=O)N2CCCC[C@H]2C(=O)O[C@H]([C@H](C)C[C@@H]2CC[C@@H](OCCO)[C@H](OC)C2)CC(=O)[C@H](C)/C=C(\C)[C@@H](O)[C@@H](OC)C(=O)[C@H](C)C[C@H](C)/C=C/C=C/C=C/1C (some centres unmarked) [Compound I-81] | 1 to 10
6 | CO[C@@H]1C[C@H](C[C@@H](C)[C@@H]2CC(=O)[C@H](C)/C=C(\C)[C@@H](O)[C@@H](OC)C(=O)[C@H](C)C[C@H](C)/C=C/C=C/C=C(\C)[C@H](OCCOCCOC(F)(F)F)C[C@@H]3CC[C@@H](C)[C@@](O)(O3)C(=O)C(=O)N3CCCC[C@H]3C(=O)O2)CC[C@H]1OCCO [Compound I-82] | 0.1 to 1
7 | CO[C@@H]1C[C@H](C[C@@H](C)[C@@H]2CC(=O)[C@H](C)/C=C(\C)[C@@H](O)[C@@H](OC)C(=O)[C@H](C)C[C@H](C)/C=C/C=C/C=C(\C)[C@H](OCCOCCOC(F)(F)C(F)(F)F)C[C@@H]3CC[C@@H](C)[C@@](O)(O3)C(=O)C(=O)N3CCCC[C@H]3C(=O)O2)CC[C@H]1OCCO [Compound I-79] | 1 to 10
8 | CCCCCCOC1C[C@@H]2CC[C@@H](C)[C@@](O)(O2)C(=O)C(=O)N2CCCC[C@H]2C(=O)O[C@H]([C@H](C)C[C@@H]2CC[C@@H](O)[C@H](OC)C2)CC(=O)[C@H](C)/C=C(\C)[C@@H](O)[C@@H](OC)C(=O)[C@H](C)C[C@H](C)/C=C/C=C/C=C/1C (some centres unmarked) [Compound I-103] | 0.1 to 1
9 | CO[C@@H]1C[C@H](C[C@@H](C)[C@@H]2CC(=O)[C@H](C)/C=C(\C)[C@@H](O)[C@@H](OC)C(=O)[C@H](C)C[C@H](C)/C=C/C=C/C=C(\C)C(OC[C@@H](O)[C@@H](O)[C@H](O)[C@H](O)CO)C[C@@H]3CC[C@@H](C)[C@@](O)(O3)C(=O)C(=O)N3CCCC[C@H]3C(=O)O2)CC[C@H]1O (some centres unmarked) [Compound I-63] | ≥ 100
10 | CO[C@@H]1C[C@H](C[C@@H](C)[C@@H]2CC(=O)[C@H](C)/C=C(\C)[C@@H](O)[C@@H](OC)C(=O)[C@H](C)C[C@H](C)/C=C/C=C/C=C(\C)C(OCCOCCOCCOCCOCCOCCOCCOCCOCCOCCO)C[C@@H]3CC[C@@H](C)[C@@](O)(O3)C(=O)C(=O)N3CCCC[C@H]3C(=O)O2)CC[C@H]1O (some centres unmarked) [Compound I-98] | 1 to 10
11 | CO[C@@H]1C[C@H](C[C@@H](C)[C@@H]2CC(=O)[C@H](C)/C=C(\C)[C@@H](O)[C@@H](OC)C(=O)[C@H](C)C[C@H](C)/C=C/C=C/C=C(\C)C(OCCOCCO)C[C@@H]3CC[C@@H](C)[C@@](O)(O3)C(=O)C(=O)N3CCCC[C@H]3C(=O)O2)CC[C@H]1OCCOCCO (some centres unmarked) [Compound I-76] | 1 to 10
12 | CNC(=O)OCCO[C@H]1C[C@@H]2CC[C@@H](C)[C@@](O)(O2)C(=O)C(=O)N2CCCC[C@H]2C(=O)OC([C@H](C)CC2CC[C@@H](OCCO)[C@H](OC)C2)CC(=O)[C@H](C)/C=C(\C)[C@@H](O)[C@@H](OC)C(=O)[C@H](C)C[C@H](C)/C=C/C=C/C=C/1C (some centres unmarked) [Compound I-75] | < 0.1
13 | COCCOCCOC1C[C@@H]2CC[C@@H](C)[C@@](O)(O2)C(=O)C(=O)N2CCCC[C@H]2C(=O)OC([C@H](C)CC2CC[C@@H](OCCOC)[C@H](OC)C2)CC(=O)[C@H](C)/C=C(\C)[C@@H](O)[C@@H](OC)C(=O)[C@H](C)C[C@H](C)/C=C/C=C/C=C/1C (some centres unmarked) [Compound I-92] | 0.1 to 1
14 | CO[C@@H]1C[C@H](C[C@@H](C)[C@@H]2CC(=O)[C@H](C)/C=C(\C)[C@@H](O)[C@@H](OC)C(=O)[C@H](C)C[C@H](C)/C=C/C=C/C=C(\C)C(OCCOCCOCC(F)(F)F)C[C@@H]3CC[C@@H](C)[C@@](O)(O3)C(=O)C(=O)N3CCCC[C@H]3C(=O)O2)CC[C@H]1O (some centres unmarked) [Compound I-91] | < 0.1
15 | CO[C@@H]1C[C@H](C[C@@H](C)[C@@H]2CC(=O)[C@H](C)/C=C(\C)[C@@H](O)[C@@H](OC)C(=O)[C@H](C)C[C@H](C)/C=C/C=C/C=C(\C)[C@@H](OCCOCCOCCO)C[C@@H]3CC[C@@H](C)[C@@](O)(O3)C(=O)C(=O)N3CCCC[C@H]3C(=O)O2)CC[C@H]1OCCOCCOCCO [Compound I-73] | 1 to 10
16 | COCCOCCO[C@@H]1C[C@@H]2CC[C@@H](C)[C@@](O)(O2)C(=O)C(=O)N2CCCC[C@H]2C(=O)O[C@H]([C@H](C)C[C@@H]2CC[C@@H](OCCOC)[C@H](OC)C2)CC(=O)[C@H](C)/C=C(\C)[C@@H](O)[C@@H](OC)C(=O)[C@H](C)C[C@H](C)/C=C/C=C/C=C/1C [Compound I-89] | 1 to 10
17 | CO[C@@H]1C[C@H](C[C@@H](C)[C@@H]2CC(=O)[C@H](C)/C=C(\C)[C@@H](O)[C@@H](OC)C(=O)[C@H](C)C[C@H](C)/C=C/C=C/C=C(\C)C(OCCOCCOCCO)C[C@@H]3CC[C@@H](C)[C@@](O)(O3)C(=O)C(=O)N3CCCC[C@H]3C(=O)O2)CC[C@H]1OCCOCCOCCO (some centres unmarked) [Compound I-78] | 1 to 10

Results, then the compound that gave them:

Row | IC50 [nM] | SMILES
18 | < 0.1 | CO[C@@H]1C[C@H](C[C@@H](C)[C@@H]2CC(=O)[C@H](C)/C=C(\C)[C@@H](O)[C@@H](OC)C(=O)[C@H](C)C[C@H](C)/C=C/C=C/C=C(\C)C(OCCOCCOCC(F)(F)F)C[C@@H]3CC[C@@H](C)[C@@](O)(O3)C(=O)C(=O)N3CCCC[C@H]3C(=O)O2)CC[C@H]1OCCO (some centres unmarked) [Compound I-86]
19 | 0.1 to 1 | CO[C@@H]1C[C@H](C[C@@H](C)[C@@H]2CC(=O)[C@H](C)/C=C(\C)[C@@H](O)[C@@H](OC)C(=O)[C@H](C)C[C@H](C)/C=C/C=C/C=C(\C)[C@@H](OCCOCCO)C[C@@H]3CC[C@@H](C)[C@@](O)(O3)C(=O)C(=O)N3CCCC[C@H]3C(=O)O2)CC[C@H]1OCCOCCO [Compound I-67]
20 | 1 to 10 | CO[C@@H]1C[C@H](C[C@@H](C)[C@@H]2CC(=O)[C@H](C)/C=C(\C)[C@@H](O)[C@@H](OC)C(=O)[C@H](C)C[C@H](C)/C=C/C=C/C=C(\C)C(OCCOCC(COCCO)COCCO)C[C@@H]3CC[C@@H](C)[C@@](O)(O3)C(=O)C(=O)N3CCCC[C@H]3C(=O)O2)CC[C@H]1O (some centres unmarked) [Compound I-100]
21 | < 0.1 | CO[C@@H]1C[C@H](C[C@@H](C)[C@@H]2CC(=O)[C@H](C)/C=C(\C)[C@@H](O)[C@@H](OC)C(=O)[C@H](C)C[C@H](C)/C=C/C=C/C=C(\C)[C@H](OC[C@@H](O)[C@@H](O)[C@H](O)[C@H](O)CO)C[C@@H]3CC[C@@H](C)[C@@](O)(O3)C(=O)C(=O)N3CCCC[C@H]3C(=O)O2)CC[C@H]1O [Compound I-57]
22 | 0.1 to 1 | CO[C@@H]1C[C@H](C[C@@H](C)[C@@H]2CC(=O)[C@H](C)/C=C(\C)[C@@H](O)[C@@H](OC)C(=O)[C@H](C)C[C@H](C)/C=C/C=C/C=C(\C)[C@@H](OC[C@@H](O)[C@@H](O)[C@H](O)[C@H](O)CO)C[C@@H]3CC[C@@H](C)[C@@](O)(O3)C(=O)C(=O)N3CCCC[C@H]3C(=O)O2)CC[C@H]1O [Compound I-58]
23 | < 0.1 | CO[C@@H]1C[C@H](C[C@@H](C)[C@@H]2CC(=O)[C@H](C)/C=C(\C)[C@@H](O)[C@@H](OC)C(=O)[C@H](C)C[C@H](C)/C=C/C=C/C=C(\C)C(OCCOCCOC(F)(F)C(F)(F)F)C[C@@H]3CC[C@@H](C)[C@@](O)(O3)C(=O)C(=O)N3CCCC[C@H]3C(=O)O2)CC[C@H]1OCCO (some centres unmarked) [Compound I-87]
24 | 1 to 10 | CO[C@@H]1C[C@H](C[C@@H](C)[C@@H]2CC(=O)[C@H](C)/C=C(\C)[C@@H](O)[C@@H](OC)C(=O)[C@H](C)C[C@H](C)/C=C/C=C/C=C(\C)[C@H](OCCOCCO)C[C@@H]3CC[C@@H](C)[C@@](O)(O3)C(=O)C(=O)N3CCCC[C@H]3C(=O)O2)CC[C@H]1OCCOCCO [Compound I-66]
25 | < 0.1 | CO[C@@H]1C[C@H](C[C@@H](C)[C@@H]2CC(=O)[C@H](C)/C=C(\C)[C@@H](O)[C@@H](OC)C(=O)[C@H](C)C[C@H](C)/C=C/C=C/C=C(\C)C(OCCOCCOC(F)(F)F)C[C@@H]3CC[C@@H](C)[C@@](O)(O3)C(=O)C(=O)N3CCCC[C@H]3C(=O)O2)CC[C@H]1OCCO (some centres unmarked) [Compound I-88]
26 | 1 to 10 | CO[C@@H]1C[C@H](C[C@@H](C)[C@@H]2CC(=O)[C@H](C)/C=C(\C)[C@@H](O)[C@@H](OC)C(=O)[C@H](C)C[C@H](C)/C=C/C=C/C=C(\C)[C@H](OCCOCCOCCO)C[C@@H]3CC[C@@H](C)[C@@](O)(O3)C(=O)C(=O)N3CCCC[C@H]3C(=O)O2)CC[C@H]1OCCOCCOCCO [Compound I-72]
